For one assay, the system named is V. harveyi. The experiment in a line: URDA of non-heated and heated peptides. In kind it is cell-based, Vibrio harveyi. The note with it: non-heated and after 100 °C for 10 min.
Assay [1] is described as follows: Calcein leakage assay, acidic liposomes. The note with it: DOPC/DOPG (3:1) LUVs 95 µM, 20 mM TES pH 7.4, 25 °C, 3 min, peptide 20 μM. As to the method:
(§1) For leakage experiments, large unilamellar vesicles (LUVs) (DOPC or DOPC-DOPG, 3:1) with encapsulated calcein were prepared using the extrusion method. The desired mixtures of phospholipids were dried in glass tubes under nitrogen and then lyophilized overnight to obtain lipid films. The dry lipid films were suspended in leakage buffer (20 mM TES buffer containing 150 mM NaCl, pH 7.4) and 70 mM calcein, and then vortexed occasionally to disperse the lipids. The suspension was freeze–thawed in liquid nitrogen for 10 cycles and extruded 10 times through 0.1-μm polycarbonate membrane filters in an Avanti mini extruder apparatus (Avanti Polar Lipids, Inc., Alabaster, AL, USA). […]
(§2) Leakage of calcein from liposomes was determined as described by Park et al.. […] The increase in the fluorescence of calcein when leaking out of liposomes was monitored at an emission wavelength of 520 nm and an excitation wavelength at 490 nm. The change in fluorescence intensity was measured for 3 min after peptide addition. […] The percentage of dye release was calculated as follows: Dye leakage (%) = 100 × (F − F0)/(Ft − F0) Where F is the fluorescence intensity caused by the peptide and F0 and Ft are those with buffer alone and with 10% Triton X-100, respectively.

A short description of assay [2]: Calcein leakage assay, neutral liposomes. The note with it: DOPC LUVs 95 µM, 20 mM TES pH 7.4, 25 °C, 3 min, peptide 20 μM. As to the method: as §1, §2

Where no end group is shown, it is not given here.

Consider KLVKTQLKVLK [ofLBP 4N], for which, in the assay with V. harveyi, the “Antimicrobial activity against V. harveyi (URDA)” value is recorded as “did not show any antimicrobial activity”. On the same count and under the same terms, as for MKLVKTWLKVLK-NH2 [ofLBP 6A], the entry is “significant activity”. For the substance Piscidin 1 [reference compound], the “Leakage of entrapped calcein from acidic liposomes at 20 μM” value in assay [1] is “complete leakage”. Further, the “Leakage of entrapped calcein from neutral liposomes at 20 μM” value in assay [2] is given as “complete leakage”.

(Values after PMC4210897, “Antimicrobial Activity of Peptides Derived from Olive Flounder Lipopolysaccharide Binding Protein/Bactericidal Permeability-Increasing Protein (LBP/BPI)” (Marine Drugs, 2014).)
